From patent US20240400577A1, “MODULATORS OF PROTEIN KINASES” (VIBLIOME THERAPEUTICS, LLC, priority 2021, published 2024)

Legend:
Experiment in all cases: Kinase panel enzymatic inhibition assay (Nanosyn)
Format in all cases: biochemical
ARAF = molecular target: T1, ARAF (Homo sapiens, UniProt P10398); details: compound 5 μM; ATP at Km; 30-minute pre-incubation
T1 construct: purchased Nanosyn (contract screening)
T1 sequence (P10398 1-606): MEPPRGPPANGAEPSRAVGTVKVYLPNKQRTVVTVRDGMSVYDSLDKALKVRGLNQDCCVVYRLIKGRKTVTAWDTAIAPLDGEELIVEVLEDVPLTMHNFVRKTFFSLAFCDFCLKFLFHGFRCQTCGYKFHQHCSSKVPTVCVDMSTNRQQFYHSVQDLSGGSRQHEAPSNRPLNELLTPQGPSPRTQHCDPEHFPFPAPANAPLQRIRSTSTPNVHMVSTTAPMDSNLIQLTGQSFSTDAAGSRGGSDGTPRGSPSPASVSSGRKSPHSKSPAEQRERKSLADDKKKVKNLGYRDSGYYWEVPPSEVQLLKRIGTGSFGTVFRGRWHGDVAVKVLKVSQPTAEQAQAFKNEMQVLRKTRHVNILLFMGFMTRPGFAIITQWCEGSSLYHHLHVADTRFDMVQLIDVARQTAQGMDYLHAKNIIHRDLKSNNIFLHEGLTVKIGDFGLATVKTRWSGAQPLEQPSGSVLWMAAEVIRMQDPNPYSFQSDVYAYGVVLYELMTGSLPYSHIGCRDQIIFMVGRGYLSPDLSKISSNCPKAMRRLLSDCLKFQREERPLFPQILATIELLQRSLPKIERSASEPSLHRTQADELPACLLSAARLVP
Procedure, shortened: (§1)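 Enzymatic inhibition measured within a panel of at least 300 kinases, using a validated format such as Caliper LabChip mobility shift, ADP detection or time-resolved fluorescence. Compounds tested at 5 μM with ATP at each kinase's Km, after a 30-minute pre-incubation. Values given as percent inhibition or IC50.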

Abl1 = molecular target: T2, Abl1 (Homo sapiens, UniProt P00519); details: compound 5 μM; ATP at Km; 30-minute pre-incubation
T2 construct: purchased Nanosyn (contract screening)
Procedure, shortened: as §1

BRK = molecular target: T3, BRK (Homo sapiens, UniProt Q13882); details: compound 5 μM; ATP at Km; 30-minute pre-incubation
T3 construct: purchased Nanosyn (contract screening)
Procedure, shortened: as §1

CLK4 = molecular target: T4, CLK4 (Homo sapiens, UniProt Q9HAZ1); details: compound 5 μM; ATP at Km; 30-minute pre-incubation
T4 construct: purchased Nanosyn (contract screening)
Procedure, shortened: as §1

COT1 = molecular target: T5, COT1 (Homo sapiens, UniProt P41279); details: compound 5 μM; ATP at Km; 30-minute pre-incubation
T5 construct: purchased Nanosyn (contract screening)
Procedure, shortened: as §1

CSK = molecular target: T6, CSK (Homo sapiens, UniProt P41240); details: compound 5 μM; ATP at Km; 30-minute pre-incubation
T6 construct: purchased Nanosyn (contract screening)
Procedure, shortened: as §1

FYN = molecular target: T7, FYN (Homo sapiens, UniProt P06241); details: compound 5 μM; ATP at Km; 30-minute pre-incubation
T7 construct: purchased Nanosyn (contract screening)
Procedure, shortened: as §1

HCK = molecular target: T8, HCK (Homo sapiens, UniProt P08631); details: compound 5 μM; ATP at Km; 30-minute pre-incubation
T8 construct: purchased Nanosyn (contract screening)
Procedure, shortened: as §1

KIT = molecular target: T9, KIT (Homo sapiens, UniProt P10721); details: compound 5 μM; ATP at Km; 30-minute pre-incubation
T9 construct: purchased Nanosyn (contract screening)
Procedure, shortened: as §1

LCK = molecular target: T10, LCK (Homo sapiens, UniProt P06239); details: ATP at Km, 30-minute pre-incubation; for inhibition at 5 µM: compound 5 μM; for IC50: read-out: kinase inhibition in terms of IC50, LCK
T10 construct: purchased Nanosyn (contract screening)
Procedure, shortened: as §1

LYNa = molecular target: T11, LYNa (Homo sapiens, UniProt P07948); details: compound 5 μM; ATP at Km; 30-minute pre-incubation
T11 construct: purchased Nanosyn (contract screening)
Procedure, shortened: as §1

MAP4K2 = molecular target: T12, MAP4K2 (Homo sapiens, UniProt Q12851); details: compound 5 μM; ATP at Km; 30-minute pre-incubation
T12 construct: purchased Nanosyn (contract screening)
T12 sequence (Q12851 1-820): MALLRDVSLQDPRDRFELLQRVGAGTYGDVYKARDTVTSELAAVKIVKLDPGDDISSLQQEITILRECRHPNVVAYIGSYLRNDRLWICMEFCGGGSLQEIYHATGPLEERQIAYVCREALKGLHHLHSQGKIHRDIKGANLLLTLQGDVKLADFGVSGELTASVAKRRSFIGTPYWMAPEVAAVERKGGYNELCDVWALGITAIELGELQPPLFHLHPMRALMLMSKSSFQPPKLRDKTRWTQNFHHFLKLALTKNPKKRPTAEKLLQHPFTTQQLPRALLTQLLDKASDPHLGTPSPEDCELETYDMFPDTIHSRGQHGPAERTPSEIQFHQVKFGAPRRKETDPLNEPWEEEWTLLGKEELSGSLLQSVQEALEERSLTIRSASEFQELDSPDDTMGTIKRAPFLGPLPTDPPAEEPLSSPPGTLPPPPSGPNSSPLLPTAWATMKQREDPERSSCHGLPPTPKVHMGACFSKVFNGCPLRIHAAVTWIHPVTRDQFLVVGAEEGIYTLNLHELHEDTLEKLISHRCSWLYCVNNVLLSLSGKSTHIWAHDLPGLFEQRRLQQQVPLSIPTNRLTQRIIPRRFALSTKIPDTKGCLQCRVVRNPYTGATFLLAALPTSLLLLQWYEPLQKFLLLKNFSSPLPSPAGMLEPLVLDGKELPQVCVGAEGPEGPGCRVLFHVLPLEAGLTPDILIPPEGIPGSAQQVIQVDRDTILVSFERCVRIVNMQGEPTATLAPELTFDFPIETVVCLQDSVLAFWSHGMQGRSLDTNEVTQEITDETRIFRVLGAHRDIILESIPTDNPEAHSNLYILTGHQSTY
Procedure, shortened: as §1

PDGFRb = molecular target: T13, PDGFRb (Homo sapiens, UniProt P09619); details: compound 5 μM; ATP at Km; 30-minute pre-incubation
T13 construct: Nanosyn (contract laboratory that ran the panel)
Procedure, shortened: as §1

PIKfyve = molecular target: T14, PIKfyve (Homo sapiens, UniProt Q9Y2I7); details: compound 5 μM; ATP at Km; 30-minute pre-incubation
T14 construct: Nanosyn (contract laboratory that ran the panel)
Procedure, shortened: as §1

RET = molecular target: T15, RET (Homo sapiens, UniProt P07949); details: compound 5 μM; ATP at Km; 30-minute pre-incubation
T15 construct: Nanosyn (contract laboratory that ran the panel)
Procedure, shortened: as §1

ZAK = molecular target: T16, ZAK (Homo sapiens, UniProt Q9NYL2); details: compound 5 μM; ATP at Km; 30-minute pre-incubation
T16 construct: Nanosyn (contract laboratory that ran the panel)
Procedure, shortened: as §1

p38a = molecular target: T17, p38a (Homo sapiens, UniProt Q16539); details: compound 5 μM; ATP at Km; 30-minute pre-incubation
T17 construct: Nanosyn (contract laboratory that ran the panel)
Procedure, shortened: as §1

T7 sequence (P06241 whole entry): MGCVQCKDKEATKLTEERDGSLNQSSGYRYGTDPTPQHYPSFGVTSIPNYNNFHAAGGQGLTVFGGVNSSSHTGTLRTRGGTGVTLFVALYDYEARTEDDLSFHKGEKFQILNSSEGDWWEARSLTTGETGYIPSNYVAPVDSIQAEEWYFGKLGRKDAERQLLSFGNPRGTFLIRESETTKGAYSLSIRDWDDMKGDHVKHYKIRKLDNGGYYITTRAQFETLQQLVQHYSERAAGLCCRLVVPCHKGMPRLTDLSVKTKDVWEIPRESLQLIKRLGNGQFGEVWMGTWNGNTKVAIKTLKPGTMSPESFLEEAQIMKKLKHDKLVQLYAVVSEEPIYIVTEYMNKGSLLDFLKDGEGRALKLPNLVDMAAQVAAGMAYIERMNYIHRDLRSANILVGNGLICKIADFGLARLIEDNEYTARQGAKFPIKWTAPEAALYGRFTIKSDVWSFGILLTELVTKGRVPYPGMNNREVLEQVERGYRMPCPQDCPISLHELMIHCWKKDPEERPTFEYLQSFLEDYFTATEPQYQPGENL
T9 sequence (P10721 26-976): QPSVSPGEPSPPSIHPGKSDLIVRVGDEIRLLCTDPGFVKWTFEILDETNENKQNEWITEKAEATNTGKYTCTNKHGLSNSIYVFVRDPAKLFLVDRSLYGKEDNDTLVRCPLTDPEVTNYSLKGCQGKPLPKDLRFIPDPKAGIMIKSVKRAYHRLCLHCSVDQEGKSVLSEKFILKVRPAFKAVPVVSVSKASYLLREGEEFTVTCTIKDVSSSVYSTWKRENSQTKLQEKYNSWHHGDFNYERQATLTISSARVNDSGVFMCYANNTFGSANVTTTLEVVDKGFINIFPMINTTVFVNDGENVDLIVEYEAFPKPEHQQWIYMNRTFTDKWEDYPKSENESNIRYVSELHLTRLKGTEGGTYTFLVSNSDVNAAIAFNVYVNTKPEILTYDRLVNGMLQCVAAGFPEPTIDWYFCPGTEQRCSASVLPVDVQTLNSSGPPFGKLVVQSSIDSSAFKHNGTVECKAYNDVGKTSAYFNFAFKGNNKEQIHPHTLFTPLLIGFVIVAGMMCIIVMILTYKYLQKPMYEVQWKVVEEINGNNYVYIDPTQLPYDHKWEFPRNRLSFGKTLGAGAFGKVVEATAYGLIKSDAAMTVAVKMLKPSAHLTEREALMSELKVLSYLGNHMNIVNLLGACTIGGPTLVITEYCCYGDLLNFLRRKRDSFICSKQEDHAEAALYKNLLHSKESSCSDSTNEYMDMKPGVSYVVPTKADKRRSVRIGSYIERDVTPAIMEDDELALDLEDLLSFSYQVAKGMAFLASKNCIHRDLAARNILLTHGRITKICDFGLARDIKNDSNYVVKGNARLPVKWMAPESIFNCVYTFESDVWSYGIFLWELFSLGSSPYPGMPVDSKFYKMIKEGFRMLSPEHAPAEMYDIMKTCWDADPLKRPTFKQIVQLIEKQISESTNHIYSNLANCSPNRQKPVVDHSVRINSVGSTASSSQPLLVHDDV
T16 sequence (Q9NYL2 whole entry): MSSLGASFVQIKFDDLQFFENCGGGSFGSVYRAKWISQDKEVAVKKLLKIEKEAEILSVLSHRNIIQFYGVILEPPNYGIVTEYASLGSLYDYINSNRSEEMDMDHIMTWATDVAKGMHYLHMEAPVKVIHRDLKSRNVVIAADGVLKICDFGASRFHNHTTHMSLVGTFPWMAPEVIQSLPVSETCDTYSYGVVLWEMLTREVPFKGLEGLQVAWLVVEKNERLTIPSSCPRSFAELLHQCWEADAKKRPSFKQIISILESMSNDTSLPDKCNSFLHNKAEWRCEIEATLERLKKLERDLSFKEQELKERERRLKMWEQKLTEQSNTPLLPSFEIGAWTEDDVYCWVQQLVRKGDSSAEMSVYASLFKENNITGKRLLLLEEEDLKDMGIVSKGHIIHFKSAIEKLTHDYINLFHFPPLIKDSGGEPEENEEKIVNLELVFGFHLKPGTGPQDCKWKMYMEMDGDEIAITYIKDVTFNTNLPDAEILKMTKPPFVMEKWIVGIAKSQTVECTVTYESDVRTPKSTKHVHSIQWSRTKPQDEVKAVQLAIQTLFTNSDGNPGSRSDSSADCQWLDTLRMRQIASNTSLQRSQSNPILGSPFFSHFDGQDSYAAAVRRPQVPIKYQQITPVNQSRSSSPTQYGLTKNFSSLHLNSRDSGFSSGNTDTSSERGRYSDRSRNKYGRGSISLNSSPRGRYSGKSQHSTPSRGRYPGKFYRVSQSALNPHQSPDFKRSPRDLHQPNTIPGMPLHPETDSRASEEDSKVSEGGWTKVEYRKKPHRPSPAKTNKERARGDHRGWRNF
T15 sequence (P07949 29-1114): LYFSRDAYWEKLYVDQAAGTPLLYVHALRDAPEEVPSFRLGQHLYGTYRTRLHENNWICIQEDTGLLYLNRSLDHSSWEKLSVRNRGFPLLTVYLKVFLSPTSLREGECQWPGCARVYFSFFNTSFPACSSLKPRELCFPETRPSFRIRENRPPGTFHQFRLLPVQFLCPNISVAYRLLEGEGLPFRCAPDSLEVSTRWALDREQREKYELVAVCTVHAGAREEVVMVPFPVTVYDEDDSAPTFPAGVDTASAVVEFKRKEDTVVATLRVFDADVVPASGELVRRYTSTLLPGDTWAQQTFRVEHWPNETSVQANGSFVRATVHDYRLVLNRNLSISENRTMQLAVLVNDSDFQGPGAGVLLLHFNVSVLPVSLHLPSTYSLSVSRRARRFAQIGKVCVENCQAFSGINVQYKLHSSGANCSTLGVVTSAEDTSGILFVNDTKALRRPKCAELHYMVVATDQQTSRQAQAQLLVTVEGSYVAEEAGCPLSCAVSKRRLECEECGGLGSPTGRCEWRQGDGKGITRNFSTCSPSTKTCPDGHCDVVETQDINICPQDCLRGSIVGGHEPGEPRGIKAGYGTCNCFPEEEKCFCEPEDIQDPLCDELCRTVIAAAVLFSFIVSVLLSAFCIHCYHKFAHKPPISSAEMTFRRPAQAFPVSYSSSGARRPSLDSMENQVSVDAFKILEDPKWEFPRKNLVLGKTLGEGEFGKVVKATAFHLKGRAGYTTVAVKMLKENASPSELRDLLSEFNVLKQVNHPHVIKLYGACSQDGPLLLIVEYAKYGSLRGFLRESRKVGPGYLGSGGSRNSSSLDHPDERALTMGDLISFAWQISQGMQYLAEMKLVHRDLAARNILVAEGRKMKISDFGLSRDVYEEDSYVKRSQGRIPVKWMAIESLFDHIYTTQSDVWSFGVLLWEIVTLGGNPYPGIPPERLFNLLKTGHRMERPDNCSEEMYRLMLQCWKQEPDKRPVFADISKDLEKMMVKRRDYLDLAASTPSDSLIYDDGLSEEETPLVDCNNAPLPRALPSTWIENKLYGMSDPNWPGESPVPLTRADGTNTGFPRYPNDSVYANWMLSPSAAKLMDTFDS
T11 sequence (P07948 whole entry): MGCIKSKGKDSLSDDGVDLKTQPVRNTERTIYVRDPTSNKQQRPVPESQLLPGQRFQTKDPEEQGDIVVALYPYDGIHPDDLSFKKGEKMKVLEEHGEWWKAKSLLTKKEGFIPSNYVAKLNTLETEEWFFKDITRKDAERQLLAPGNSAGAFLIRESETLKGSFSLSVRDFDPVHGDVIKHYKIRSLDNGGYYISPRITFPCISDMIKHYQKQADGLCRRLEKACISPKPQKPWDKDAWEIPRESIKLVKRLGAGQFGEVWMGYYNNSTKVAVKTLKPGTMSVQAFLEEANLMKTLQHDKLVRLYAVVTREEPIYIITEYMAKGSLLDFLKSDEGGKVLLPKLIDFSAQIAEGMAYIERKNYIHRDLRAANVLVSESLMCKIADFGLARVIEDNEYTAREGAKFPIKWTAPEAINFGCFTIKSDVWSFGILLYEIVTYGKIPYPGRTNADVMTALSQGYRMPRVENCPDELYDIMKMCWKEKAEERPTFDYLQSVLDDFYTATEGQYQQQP
T8 sequence (P08631 whole entry): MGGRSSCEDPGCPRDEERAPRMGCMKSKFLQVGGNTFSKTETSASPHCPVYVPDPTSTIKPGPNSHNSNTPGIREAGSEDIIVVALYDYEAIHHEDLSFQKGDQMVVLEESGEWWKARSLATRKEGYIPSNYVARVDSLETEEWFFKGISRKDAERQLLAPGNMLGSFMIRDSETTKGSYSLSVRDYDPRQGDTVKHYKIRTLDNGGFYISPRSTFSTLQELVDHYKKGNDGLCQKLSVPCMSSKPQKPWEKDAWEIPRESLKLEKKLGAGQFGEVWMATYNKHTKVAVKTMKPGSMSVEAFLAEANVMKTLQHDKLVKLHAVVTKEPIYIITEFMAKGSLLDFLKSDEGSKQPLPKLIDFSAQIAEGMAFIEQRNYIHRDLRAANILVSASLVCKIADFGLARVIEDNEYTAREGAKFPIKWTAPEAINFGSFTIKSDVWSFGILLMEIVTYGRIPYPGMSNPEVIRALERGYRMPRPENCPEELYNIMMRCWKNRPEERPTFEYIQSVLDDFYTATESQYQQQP
T10 sequence (P06239 whole entry): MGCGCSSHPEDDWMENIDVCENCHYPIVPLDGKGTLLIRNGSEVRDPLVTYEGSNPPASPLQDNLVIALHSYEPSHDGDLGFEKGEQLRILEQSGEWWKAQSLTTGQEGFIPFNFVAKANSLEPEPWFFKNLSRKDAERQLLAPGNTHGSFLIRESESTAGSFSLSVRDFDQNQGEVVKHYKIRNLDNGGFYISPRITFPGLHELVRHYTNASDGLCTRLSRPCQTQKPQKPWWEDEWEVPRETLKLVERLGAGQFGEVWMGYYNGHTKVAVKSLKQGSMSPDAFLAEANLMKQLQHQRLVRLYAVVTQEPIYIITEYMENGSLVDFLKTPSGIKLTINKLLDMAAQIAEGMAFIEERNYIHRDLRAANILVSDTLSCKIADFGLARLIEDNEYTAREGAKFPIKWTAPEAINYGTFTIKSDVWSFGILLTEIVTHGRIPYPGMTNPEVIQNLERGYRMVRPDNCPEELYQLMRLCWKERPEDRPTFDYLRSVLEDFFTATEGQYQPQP

| inhibition at 5 µM (ARAF) [%] | inhibition at 5 µM (Abl1) [%] | inhibition at 5 µM (BRK) [%] | inhibition at 5 µM (CLK4) [%] | inhibition at 5 µM (COT1) [%] | inhibition at 5 µM (CSK) [%] | inhibition at 5 µM (FYN) [%] | inhibition at 5 µM (HCK) [%] | inhibition at 5 µM (KIT) [%] | inhibition at 5 µM (LCK) [%] | inhibition at 5 µM (LYNa) [%] | inhibition at 5 µM (MAP4K2) [%] | inhibition at 5 µM (PDGFRb) [%] | inhibition at 5 µM (PIKfyve) [%] | inhibition at 5 µM (RET) [%] | inhibition at 5 µM (ZAK) [%] | inhibition at 5 µM (p38a) [%] | IC50 (LCK) [nM] | Compound |
| --- | --- | --- | --- | --- | --- | --- | --- | --- | --- | --- | --- | --- | --- | --- | --- | --- | --- | --- |
| ≥ 95 | < 79 | < 79 | < 79 | < 79 | < 79 | < 79 | < 79 | 90 to 94 | < 79 | < 79 | < 79 | 80 to 89 | < 79 | 90 to 94 | < 79 | 80 to 89 |  | Cc1ccc(NC(=O)c2cc(S(C)(=O)=O)n(-c3ccc(F)cc3)n2)cc1Nc1ccc2ncn(C)c(=O)c2c1 [Ex4, 1-(4-fluorophenyl)-N-(4-methyl-3-((3-methyl-4-oxo-3,4-dihydroquinazolin-6-yl)amino)phenyl)-5-(methylsulfonyl)-1H-pyrazole-3-carboxamide] |
| ≥ 95 | < 79 | < 79 | < 79 | < 79 | < 79 | < 79 | < 79 | 80 to 89 | 90 to 94 | ≥ 95 | < 79 | < 79 | < 79 | < 79 | < 79 | ≥ 95 |  | Cc1ccc(NC(=O)c2cc([S+](C)[O-])n(-c3ccc(F)cc3)n2)cc1Nc1ccc2ncn(C)c(=O)c2c1 (stereo not drawn) [Ex5, 1-(4-fluorophenyl)-N-(4-methyl-3-((3-methyl-4-oxo-3,4-dihydroquinazolin-6-yl)amino)phenyl)-5-(methylsulfinyl)-1H-pyrazole-3-carboxamide] |
| < 79 | < 79 | 80 to 89 | < 79 | < 79 | 80 to 89 | ≥ 95 | ≥ 95 | 90 to 94 | ≥ 95 | 90 to 94 | < 79 | ≥ 95 | 90 to 94 | 90 to 94 | < 79 | 90 to 94 |  | Cc1ccc(NC(=O)c2cc([S+](C)[O-])n(-c3ccc(F)cc3)n2)cc1C#Cc1cnc2cccnn12 (stereo not drawn) [Ex6, 1-(4-fluorophenyl)-N-(3-(imidazo[1,2-b]pyridazin-3-ylethynyl)-4-methylphenyl)-5-(methylsulfinyl)-1H-pyrazole-3-carboxamide] |
| < 79 | < 79 | < 79 | < 79 | < 79 | < 79 | < 79 | < 79 | < 79 | < 79 | < 79 | < 79 | < 79 | < 79 | < 79 | < 79 | < 79 |  | CNC(=O)c1cc(Oc2ccc(F)c(NC(=O)c3cc([S+](C)[O-])n(-c4ccc(F)cc4)n3)c2)ccn1 (stereo not drawn) [Ex7, 4-(4-fluoro-3-(1-(4-fluorophenyl)-5-(methylsulfinyl)-1H-pyrazole-3-carboxamido)phenoxy)-N-methylpicolinamide] |
| < 79 | < 79 | < 79 | 80 to 89 | 90 to 94 | < 79 | < 79 | < 79 | < 79 | < 79 | < 79 | 80 to 89 | < 79 | < 79 | < 79 | < 79 | < 79 |  | CSc1cc(C(=O)Nc2cc(Oc3ccnc(C(=O)NC4CNC4)c3)ccc2F)nn1-c1ccc(F)cc1 [Ex8, N-(azetidin-3-yl)-4-(4-fluoro-3-(1-(4-fluorophenyl)-5-(methylthio)-1H-pyrazole-3-carboxamido)phenoxy)picolinamide] |
| ≥ 95 | < 79 | < 79 | < 79 | < 79 | < 79 | < 79 | < 79 | < 79 | < 79 | < 79 | < 79 | < 79 | < 79 | < 79 | < 79 | < 79 |  | Cc1ccc(NC(=O)c2cc(S(C)(=O)=O)n(-c3ccc(F)cc3)n2)cc1-c1cc(OCCO)nc(N2CCOCC2)c1 [Ex9, 1-(4-fluorophenyl)-N-(3-(2-(2-hydroxyethoxy)-6-morpholinopyridin-4-yl)-4-methylphenyl)-5-(methylsulfonyl)-1H-pyrazole-3-carboxamide] |
|  |  |  |  |  |  |  |  |  |  |  |  |  |  |  |  |  | < 500 | COc1cc2nccc(Oc3ccc(NC(=O)c4cc(S(C)(=O)=O)n(-c5ccc(F)cc5)n4)c(F)c3)c2cc1OC [Ex71, N-(4-((6,7-dimethoxyquinolin-4-yl)oxy)-2-fluorophenyl)-1-(4-fluorophenyl)-5-(methylsulfonyl)-1H-pyrazole-3-carboxamide] |
|  |  |  |  |  |  |  |  |  |  |  |  |  |  |  |  |  | 500 to 1000 | COc1cc2nccc(Oc3ccc(NC(=O)c4cc(S(C)(=O)=O)n(-c5ccc(F)cc5)n4)cc3)c2cc1OC [Ex72, N-(4-((6,7-dimethoxyquinolin-4-yl)oxy)phenyl)-1-(4-fluorophenyl)-5-(methylsulfonyl)-1H-pyrazole-3-carboxamide] |
|  |  |  |  |  |  |  |  |  |  |  |  |  |  |  |  |  | 500 to 1000 | COc1cc2nccc(Oc3ccc(NC(=O)c4cc(S(C)(=O)=O)n(-c5ccc(F)cc5)n4)cc3F)c2cc1OC [Ex73, N-(4-((6,7-dimethoxyquinolin-4-yl)oxy)-3-fluorophenyl)-1-(4-fluorophenyl)-5-(methylsulfonyl)-1H-pyrazole-3-carboxamide] |
